In general, Dmax refers to the greatest extent of degradation seen. The DC50 is the concentration giving 50% degradation.

SMILES strings stand for the structures. Read-outs that look alike come from different tables or passages of the source.

For this experiment, the target named is T1, LRRK2 (endogenous, HiBit tagged) (Homo sapiens, UniProt Q5S007).
T1 construct: endogenous in cells; host or cells: HEK293 cells with HiBit knock-in at the endogenous LRRK2 locus, stably expressing firefly luciferase
T1 sequence (Q5S007 whole entry): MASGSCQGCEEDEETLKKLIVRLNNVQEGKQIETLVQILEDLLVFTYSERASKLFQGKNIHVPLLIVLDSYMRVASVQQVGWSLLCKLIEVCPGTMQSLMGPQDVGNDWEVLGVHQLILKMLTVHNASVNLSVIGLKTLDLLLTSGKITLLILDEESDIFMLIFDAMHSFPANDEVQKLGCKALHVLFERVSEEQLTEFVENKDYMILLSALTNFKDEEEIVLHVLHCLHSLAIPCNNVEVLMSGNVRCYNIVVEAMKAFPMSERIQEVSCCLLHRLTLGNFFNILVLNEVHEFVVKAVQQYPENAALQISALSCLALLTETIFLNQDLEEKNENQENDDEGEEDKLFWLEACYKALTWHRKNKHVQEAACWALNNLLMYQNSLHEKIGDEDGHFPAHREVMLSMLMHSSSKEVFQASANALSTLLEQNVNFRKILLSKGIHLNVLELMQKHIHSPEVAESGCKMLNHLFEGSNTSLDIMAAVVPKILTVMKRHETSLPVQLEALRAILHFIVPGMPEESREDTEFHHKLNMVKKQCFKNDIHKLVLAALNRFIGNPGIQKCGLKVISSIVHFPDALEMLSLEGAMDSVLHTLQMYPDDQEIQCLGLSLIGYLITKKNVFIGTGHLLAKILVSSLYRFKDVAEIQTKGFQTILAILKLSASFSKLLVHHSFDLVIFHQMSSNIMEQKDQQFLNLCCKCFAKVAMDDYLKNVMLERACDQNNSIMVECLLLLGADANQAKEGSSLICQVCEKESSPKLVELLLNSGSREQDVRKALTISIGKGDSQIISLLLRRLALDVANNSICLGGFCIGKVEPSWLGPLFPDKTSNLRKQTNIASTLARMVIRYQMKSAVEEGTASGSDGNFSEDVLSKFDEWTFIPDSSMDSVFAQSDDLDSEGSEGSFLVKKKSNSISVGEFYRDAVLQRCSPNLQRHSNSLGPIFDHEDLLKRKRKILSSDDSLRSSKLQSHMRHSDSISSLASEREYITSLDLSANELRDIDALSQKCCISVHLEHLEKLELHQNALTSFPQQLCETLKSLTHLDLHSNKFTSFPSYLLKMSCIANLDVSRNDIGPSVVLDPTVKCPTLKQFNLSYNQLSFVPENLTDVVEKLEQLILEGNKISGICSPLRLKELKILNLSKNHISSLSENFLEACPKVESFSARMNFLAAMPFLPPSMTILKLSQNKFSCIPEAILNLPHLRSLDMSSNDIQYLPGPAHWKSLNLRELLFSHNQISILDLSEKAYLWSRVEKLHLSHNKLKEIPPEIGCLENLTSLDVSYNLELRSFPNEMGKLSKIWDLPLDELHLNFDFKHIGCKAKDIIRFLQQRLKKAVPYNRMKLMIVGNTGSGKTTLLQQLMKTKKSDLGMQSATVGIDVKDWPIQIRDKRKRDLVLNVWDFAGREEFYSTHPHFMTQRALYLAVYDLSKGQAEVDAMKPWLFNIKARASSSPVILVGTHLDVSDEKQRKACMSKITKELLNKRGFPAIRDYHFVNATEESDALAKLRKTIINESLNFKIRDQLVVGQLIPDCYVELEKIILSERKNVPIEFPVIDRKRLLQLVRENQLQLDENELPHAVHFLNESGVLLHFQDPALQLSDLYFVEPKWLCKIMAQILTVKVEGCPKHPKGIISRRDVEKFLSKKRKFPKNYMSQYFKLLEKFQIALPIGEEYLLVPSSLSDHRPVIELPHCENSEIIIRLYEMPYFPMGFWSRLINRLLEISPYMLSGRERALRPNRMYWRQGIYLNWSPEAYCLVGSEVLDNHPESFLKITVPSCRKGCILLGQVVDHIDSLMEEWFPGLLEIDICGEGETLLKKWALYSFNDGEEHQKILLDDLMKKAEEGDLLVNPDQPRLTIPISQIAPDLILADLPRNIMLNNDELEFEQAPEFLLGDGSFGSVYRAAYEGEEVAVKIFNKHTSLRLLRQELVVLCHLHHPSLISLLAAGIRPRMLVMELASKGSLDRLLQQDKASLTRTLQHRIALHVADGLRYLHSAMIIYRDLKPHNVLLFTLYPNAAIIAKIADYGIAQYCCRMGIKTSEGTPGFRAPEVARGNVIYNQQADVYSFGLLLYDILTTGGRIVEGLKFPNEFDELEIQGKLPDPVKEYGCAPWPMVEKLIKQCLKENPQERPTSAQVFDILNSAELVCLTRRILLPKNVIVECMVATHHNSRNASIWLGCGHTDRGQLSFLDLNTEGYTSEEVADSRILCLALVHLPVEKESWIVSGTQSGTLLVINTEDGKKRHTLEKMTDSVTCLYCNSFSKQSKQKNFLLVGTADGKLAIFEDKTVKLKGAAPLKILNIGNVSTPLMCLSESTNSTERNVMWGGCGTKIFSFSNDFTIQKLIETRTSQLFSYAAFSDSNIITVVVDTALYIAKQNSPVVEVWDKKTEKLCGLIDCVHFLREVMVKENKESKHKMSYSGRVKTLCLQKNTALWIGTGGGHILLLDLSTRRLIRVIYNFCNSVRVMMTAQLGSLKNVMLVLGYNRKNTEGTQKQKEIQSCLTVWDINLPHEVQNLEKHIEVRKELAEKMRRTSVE
Briefly: Endogenous LRRK2 degradation assay, endogenous gene C-terminally HiBit-tagged in HEK293 cells (Nano-Glo Dual Luciferase). Format: cell-based. Conditions: endogenous HiBit-tagged LRRK2 in HEK293 cells, 24 hours treatment. The method in brief:
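LRRK2-HiBit quantified via Nano-Glo Dual Luciferase in HEK293 knock-in cells co-expressing firefly luciferase, after 24 h exposure to compound (1 μM final top, 1:3, 11 points). Values normalised to DMSO median per plate and curve-fitted; Alamar Blue viability run alongside.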

Setting [1] is: read-out: **Endogenous WT Dmax (%).

`COc1c(N2CCC(CN3[C@H](C)CN(CC4CCN(c5cc(-c6n[nH]c7ccc(OC8(C)CC8)cc67)ncn5)CC4)C[C@@H]3C)CC2)ccc2c1CN(C1CCC(=O)NC1=O)C2=O` (stereo partly drawn) [Compound 288, 3-[5-(4-{[(2R,6S)-2,6-dimethyl-4-[(1-{6-[5-(1-methylcyclopropoxy)-1H-indazol-3-yl]pyrimidin-4-yl}piperidin-4-yl)methyl]piperazin-1-yl]methyl}piperidin-1-yl)-4-methoxy-1-oxo-2,3-dihydro-1H-isoindol-2-yl]piperidine-2,6-dione]: the Dmax under setting [1] is at least 70%. Besides, the DC50 (read-out: *Endogenous WT DC50) was under 10 nM.
In the case of `CC1(Oc2cc3c(-c4cc(N5CCC(CN6CCN(CC7CCN(c8ccc9c(c8F)CN(C8CCC(=O)NC8=O)C9=O)CC7)CC6(C)C)CC5)ncn4)n[nH]c3cn2)CC1` (centres unmarked) [Compound 247, 3-{5-[4-({3,3-dimethyl-4-[(1-{6-[5-(1-methylcyclopropoxy)-1H-pyrazolo[3,4-c]pyridin-3-yl]pyrimidin-4-yl}piperidin-4-yl)methyl]piperazin-1-yl}methyl)piperidin-1-yl]-4-fluoro-1-oxo-2,3-dihydro-1H-isoindol-2-yl}piperidine-2,6-dione], the DC50 (read-out: Endogenous WT DC50) is under 10 nM. In addition, where the note is “read-out: Endogenous WT Dmax”, the Dmax was in the range of 50 to 70%.
For `CC1(Oc2ccc3n[nH]c(-c4cc(N5CCC(O[C@H]6CC[C@H](OC7CCN(c8cc9c(cc8F)C(=O)N(C8CCC(=O)NC8=O)C9)CC7)CC6)CC5)ncn4)c3c2)CC1` (some centres unmarked) [Compound 244, 3-[6-fluoro-1-oxo-5-(4-{[(1r,4r)-4-[(1-{6-[5-(1-methylcyclopropoxy)-2H-indazol-3-yl]pyrimidin-4-yl}piperidin-4-yl)oxy]cyclohexyl]oxy}piperidin-1-yl)-2,3-dihydro-1H-isoindol-2-yl]piperidine-2,6-dione], the DC50 (read-out: Endogenous WT DC50) was under 10 nM. In addition, the Dmax (read-out: Endogenous WT Dmax) was in the range of 50 to 70%.
With `COc1c(N2CCC(CN3CCN(CC4CCN(c5cc(-c6n[nH]c7cnc(OC8(C)CC8)cc67)ncn5)CC4)[C@H](C)C3)CC2)ccc2c1CN(C1CCC(=O)NC1=O)C2=O` (stereo partly drawn) [Compound 257, 3-[4-methoxy-5-(4-{[(3R)-3-methyl-4-[(1-{6-[5-(1-methylcyclopropoxy)-1H-pyrazolo[3,4-c]pyridin-3-yl]pyrimidin-4-yl}piperidin-4-yl)methyl]piperazin-1-yl]methyl}piperidin-1-yl)-1-oxo-2,3-dihydro-1H-isoindol-2-yl]piperidine-2,6-dione], the Dmax under setting [1] was 50 to 70%. Moreover, under “read-out: *Endogenous WT DC50”, the DC50 was under 10 nM.
For the molecule `CC1(Oc2ccc3[nH]nc(-c4cc(N5CC[C@H](CN6CCN(CC7CCN(c8ccc9c(c8F)CN(C8CCC(=O)NC8=O)C9=O)CC7)CC6)C5)ncn4)c3c2)CC1` (stereo partly drawn) [Compound 295, 3-(4-fluoro-5-{4-[(4-{[(3R)-1-{6-[5-(1-methylcyclopropoxy)-1H-indazol-3-yl]pyrimidin-4-yl}pyrrolidin-3-yl]methyl}piperazin-1-yl)methyl]piperidin-1-yl}-1-oxo-2,3-dihydro-1H-isoindol-2-yl)piperidine-2,6-dione], the greatest degradation seen (Dmax) under setting [1] was in the range of 50 to 70%. In addition, the DC50 (read-out: *Endogenous WT DC50) is under 10 nM.
`CC1(Oc2ccc3[nH]nc(-c4cc(N5CCC(CN6CCN(CC7CCN(c8ccc9c(c8F)CN(C8CCC(=O)NC8=O)C9=O)CC7)C(C)(C)C6)CC5)ncn4)c3c2)CC1` (centres unmarked) [Compound 236, 3-[5-[4-[[2,2-dimethyl-4-[[1-[6-[5-(1-methylcyclopropoxy)-1H-indazol-3-yl]pyrimidin-4-yl]-4-piperidyl]methyl]piperazin-1-yl]methyl]-1-piperidyl]-4-fluoro-1-oxo-isoindolin-2-yl]piperidine-2,6-dione]: the half-maximal degradation concentration (DC50) (read-out: Endogenous WT DC50) was under 10 nM. Moreover, the maximal degradation (Dmax) (read-out: Endogenous WT Dmax) lay within 50 to 70%.
As to `COc1c(N2CCN(C[C@H]3C[C@H](OC4CCN(c5cc(-c6[nH]nc7ccc(OC8(C)CC8)cc67)ncn5)CC4)C3)CC2)ccc2c1CN(C1CCC(=O)NC1=O)C2=O` (some centres unmarked) [Compound 314, 3-[4-methoxy-1-oxo-5-(4-{[(1r,3r)-3-[(1-{6-[5-(1-methylcyclopropoxy)-2H-indazol-3-yl]pyrimidin-4-yl}piperidin-4-yl)oxy]cyclobutyl]methyl}piperazin-1-yl)-2,3-dihydro-1H-isoindol-2-yl]piperidine-2,6-dione], the Dmax under setting [1] lay in the range of 50 to 70%. Moreover, for the setting “read-out: *Endogenous WT DC50”, the DC50 is under 10 nM.

Source of the values: patent US12559506B2, “Indazole based compounds and associated methods of use” (Arvinas Operations, Inc., priority 2021, dated 2026).
